Data from patent US5344959A, “Tetrahydronaphthyl and cyclopropyl substituted 1,3-butadienes having retinoid-like activity” (Allergan, Inc., priority 1993, dated 1994).

Key:
[1] = tested on: ornithine decarboxylase (ODC); test: inhibition of TPA induction of ornithine decarboxylase (ODC); type: in vivo; conditions: inhibition of TPA-induced ODC activity; Table 1
Description: The retinoid-like activity of these compounds is confirmed through the classic measure of retinoic acid activity involving the effects of retinoic acid on ornithine decarboxylase. The original work on the correlation-between retinoic acid and decrease in cell proliferation was done by Verma & Boutwell, Cancer Research, 1977, 37,2196-2201. That reference discloses that ornithine decarboxylase (ODC) activity increased precedent to polyamine biosynthesis. It has been established elsewhere that increases in polyamine synthesis can be correlated or associated with cellular proliferation. Thus, if ODC activity could be inhibited, cell hyperproliferation could be modulated. Although all causes for ODC activity increases are unknown, it is known that 12-0-tetradecanoylphorbol-13-acetate (TPA) induces ODC activity. Retinoic acid inhibits this induction of ODC activity by TPA.

[2] = tested on: ornithine decarboxylase (ODC); conditions: general statement, cited from earlier work

| Compound | IC80 [1] [nM] | other results |
| --- | --- | --- |
| C/C(=C\C=C\[C@H]1C[C@H]1C(=O)O)c1cc2c(cc1C)C(C)(C)CCC2(C)C (relative stereo) [Compound 6, Cis-2-[4-methyl-4-(3,5,5,8,8,-pentamethyl-5,6,7,8-tetrahydro-2-naphthyl)-(E),(E) 1-3-butadienyl]-1-cyclopropane carboxylic acid] | 638 |  |
| CCCCCCCCCCCCCC(=O)O[C@@H]1[C@@H](C)[C@@]2(O)[C@@H](C=C(CO)C[C@]3(O)C(=O)C(C)=C[C@@H]23)[C@@H]2C(C)(C)[C@]12OC(C)=O [12-0-tetradecanoylphorbol-13-acetate] |  | induction of ODC activity ([2]; known): induces |
| C/C(=C\C=C\[C@@H]1C[C@H]1C(=O)O)c1ccc2c(c1)C(C)(C)CCC2(C)C (relative stereo) [Compound 3, Trans-2-[4-methyl-4-(5,5,8,8,-tetramethyl-5,6,7,8-tetrahydro-2-naphthyl)-(E),(E) 1-3-butadienyl]-1-cyclopropane carboxylic acid] | 2.6 |  |
| CCOC(=O)[C@@H]1C[C@@H]1/C=C/C=C(\C)c1cc2c(cc1C)C(C)(C)CCC2(C)C (relative stereo) [Compound 5, Ethyl cis-2-[4-methyl-4-(3,5,5,8,8,-pentamethyl-5,6,7,8-tetrahydro-2-naphthyl)-(E),(E) 1-3-butadienyl]-1-cyclopropane carboxylate] | > 300 |  |
| C/C(=C\C=C\[C@H]1C[C@H]1C(=O)O)c1ccc2c(c1)C(C)(C)CCC2(C)C (relative stereo) [Compound 4, Cis-2-[4-methyl-4-(5,5,8,8,-tetramethyl-5,6,7,8-tetrahydro-2-naphthyl)-(E),(E) 1-3-butadienyl]-1-cyclopropane carboxylic acid] | 35 |  |
| CCOC(=O)[C@@H]1C[C@H]1/C=C/C=C(\C)c1cc2c(cc1C)C(C)(C)CCC2(C)C (relative stereo) [Compound 7, Ethyl trans-2-[4-methyl-4-(3,5,5,8,8,-pentamethyl-5,6,7,8-tetrahydro-2-naphthyl)-(E),(E) 1-3-butadienyl]-1-cyclopropane carboxylate] | 250 |  |
| CCOC(=O)[C@@H]1C[C@H]1/C=C/C=C(\C)c1ccc2c(c1)C(C)(C)CCC2(C)C (relative stereo) [Compound 2, Ethyl trans 2-[4-methyl-4(5,6,7,8-tetrahyro-5,5,8,8-tetramethyl-2-naphthyl)E,E 1-3 butadienyl] 1-cyclopropane carboxylate] | 2.1 |  |
| CC1=C(/C=C/C(C)=C/C=C/C(C)=C/C(=O)O)C(C)(C)CCC1 [Retinoic acid] |  | inhibition of induction of ODC activity by TPA ([2]; literature): inhibits |
| CCOC(=O)[C@@H]1C[C@@H]1/C=C/C=C(\C)c1ccc2c(c1)C(C)(C)CCC2(C)C (relative stereo) [Compound 1, Ethyl cis-2-[4-methyl-4-(5,5,8,8,-tetramethyl-5,6,7,8-tetrahydro-2-naphthyl)-(E),(E) 1-3-butadienyl]-1-cyclopropane carboxylate] | 8.3 |  |
